Test results as given in the supplement of paper PMC3770661.
± gives the uncertainty stated by the source.

Tested on: HepG2 (L1.3 5'UTR promoter firefly luciferase reporter)
Assay: L1 promoter activity (FLuc/RLuc) relative to DMSO vehicle control (% of control); higher = stronger L1 promoter activation
Description: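 HepG2 cells in 96-well plates were cotransfected with pGL4.11-L1.3 5'UTR (firefly luciferase driven by the human L1.3 5'UTR promoter) and pGL4.74 (HSV-TK Renilla luciferase internal control), then treated with compound for 6 or 24 h. FLuc/RLuc ratio was normalised to the DMSO vehicle control (% of control); concentrations where RLuc fell below 50% of control were excluded (N.D.). Mean of at least two independent experiments in duplicate or quadruplicate.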

[1] = concentration (uM unless unit written): 50, treatment time: 6 h
[2] = concentration (uM unless unit written): 50, treatment time: 24 h
[3] = concentration (uM unless unit written): 100, treatment time: 6 h
[4] = concentration (uM unless unit written): 100, treatment time: 24 h
[5] = concentration (uM unless unit written): 1, treatment time: 6 h
[6] = concentration (uM unless unit written): 1, treatment time: 24 h
[7] = concentration (uM unless unit written): 500, treatment time: 6 h
[8] = concentration (uM unless unit written): 250, treatment time: 6 h
[9] = concentration (uM unless unit written): 250, treatment time: 24 h

Compound C=C[C@@]1(C)CC(=O)[C@]2(O)[C@@]3(C)[C@@H](O)CCC(C)(C)[C@@H]3[C@H](O)[C@H](OC(C)=O)[C@@]2(C)O1 [Forskolin] has an L1 promoter activity (concentration (uM unless unit written): 25, treatment time: 6 h) of 88.6 ± 4.5, an L1 promoter activity (concentration (uM unless unit written): 25, treatment time: 24 h) of 59.9 ± 9 and an L1 promoter activity [1] of 85.9 ± 4. The L1 promoter activity [2] was 59 ± 6.1, the L1 promoter activity [3] was 89.2 ± 7.9 and the L1 promoter activity [4] was 52 ± 4.8.
With COc1cccc2c1C(=O)c1c(O)c3c(c(O)c1C2=O)C[C@@](O)(C(=O)CO)C[C@@H]3O[C@H]1C[C@H](N)[C@H](O)[C@H](C)O1 [Doxorubicin] the L1 promoter activity (concentration (uM unless unit written): 0.1, treatment time: 24 h) was 88.8 ± 15, the L1 promoter activity (concentration (uM unless unit written): 0.5, treatment time: 6 h) was 101 ± 33 and the L1 promoter activity (concentration (uM unless unit written): 0.5, treatment time: 24 h) was 40.2 ± 13. The L1 promoter activity [5] was 98.1 ± 26 and the L1 promoter activity [6] was 30.3 ± 5.5.
Compound COc1ccccc1OCC(O)CO (stereo not drawn) [Guaiacol glyceryl ether] has an L1 promoter activity (concentration (uM unless unit written): 1250, treatment time: 6 h) of 123 ± 7.7, an L1 promoter activity (concentration (uM unless unit written): 1250, treatment time: 24 h) of 99.7 ± 7.2 and an L1 promoter activity (concentration (uM unless unit written): 2500, treatment time: 6 h) of 136 ± 19. The L1 promoter activity (concentration (uM unless unit written): 2500, treatment time: 24 h) was 112 ± 19, the L1 promoter activity (concentration (uM unless unit written): 5000, treatment time: 6 h) was 149 ± 13 and the L1 promoter activity (concentration (uM unless unit written): 5000, treatment time: 24 h) was 145 ± 15.
CCOC(=O)[C@@]1(CCCCCCOc2ccc(Cl)cc2)CO1 [Etomoxir] showed an L1 promoter activity [1] of 127 ± 11, an L1 promoter activity [2] of 111 ± 15 and an L1 promoter activity [3] of 147 ± 12. For the same compound, the L1 promoter activity [4] was 143 ± 17 and the L1 promoter activity [7] was 181 ± 23.
NS(=O)(=O)c1cc2c(cc1Cl)NC(C(Cl)Cl)NS2(=O)=O (stereo not drawn) [Trichlormethiazide] showed an L1 promoter activity [3] of 103 ± 10, an L1 promoter activity [4] of 66.9 ± 13 and an L1 promoter activity [8] of 108 ± 17. The L1 promoter activity [9] was 59.6 ± 9.6, the L1 promoter activity [7] was 102 ± 6.6 and the L1 promoter activity (concentration (uM unless unit written): 1000, treatment time: 6 h) was 99.7 ± 27.
Compound COS(C)(=O)=O [Methyl methanesulfonate] has an L1 promoter activity (concentration (uM unless unit written): 125, treatment time: 6 h) of 113 ± 11, an L1 promoter activity (concentration (uM unless unit written): 125, treatment time: 24 h) of 90.8 ± 4.2 and an L1 promoter activity [8] of 107 ± 15. For the same compound, the L1 promoter activity [9] was 88.2 ± 13, the L1 promoter activity [7] was 100 ± 12 and the L1 promoter activity (concentration (uM unless unit written): 500, treatment time: 24 h) was 83.2 ± 4.5.
For CCCCCC[C@H]1C(=O)O[C@H](C)[C@H](NC(=O)c2cccc(NC=O)c2O)C(=O)O[C@@H](C)[C@@H]1OC(=O)CC(C)C [Antimycin A], the L1 promoter activity (concentration (uM unless unit written): 0.075, treatment time: 6 h) was 101 ± 17, the L1 promoter activity (concentration (uM unless unit written): 0.075, treatment time: 24 h) was 115 ± 21 and the L1 promoter activity [5] was 101 ± 5.7. The L1 promoter activity [6] was 109 ± 8.4.
